Test results taken from publication PMC11157767 (Molecular Cancer, 2024).

Test system: TFG-MET allograft tumors
Test: RNA-sequencing, differential expression and GSEA of TFG-MET allograft tumors
Assay type: in vivo, mouse
Conditions: GSEA CAP vs Veh, C5 GO CC
Experimental: Error bars display standard error of mean, statistical significance was determined using t-test analysis. (****;p<0.0001, ***;p<0.001, **;p<0.01, *;p<0.05). […] Each dot represents an individual replicate. Error bars display standard error of the mean.
Each dot represents one gene.

CNC(=O)c1ccc(-c2cnc3ncc(Cc4ccc5ncccc5c4)n3n2)cc1F [Capmatinib]
NES GOCC_TRANSFERASE_COMPLEX (padj 2.19055e-16): -1.9384
NES GOCC_NUCLEAR_SPECK (padj 5.1503e-15): -2.161
NES GOCC_SPLICEOSOMAL_COMPLEX (padj 1.72395e-14): -2.415
NES GOCC_CHROMOSOME_TELOMERIC_REGION (padj 7.63768e-14): -2.533
NES GOCC_VACUOLAR_MEMBRANE (padj 7.95066e-13): 2.04
NES GOCC_SMALL_SUBUNIT_PROCESSOME (padj 1.82971e-12): -2.75
NES GOCC_NUCLEAR_PORE (padj 1.03541e-11): -2.588
NES GOCC_FIBRILLAR_CENTER (padj 1.07393e-11): -2.424
NES GOCC_CHROMATIN (padj 1.91271e-11): -1.714
NES GOCC_PRERIBOSOME_LARGE_SUBUNIT_PRECURSOR (padj 2.94795e-11): -2.651
NES GOCC_METHYLTRANSFERASE_COMPLEX (padj 4.53721e-11): -2.484
NES GOCC_NUCLEAR_CHROMOSOME (padj 7.98955e-11): -2.219
NES GOCC_RESPIRATORY_CHAIN_COMPLEX (padj 1.33777e-10): 2.821
NES GOCC_NUCLEAR_PERIPHERY (padj 2.5338e-10): -2.3519
NES GOCC_NUCLEAR_ENVELOPE (padj 3.91151e-9): -1.852
NES GOCC_RIBONUCLEOPROTEIN_GRANULE (padj 4.48536e-8): -2.04
NES GOCC_CATALYTIC_STEP_2_SPLICEOSOME (padj 5.62031e-8): -2.31
NES GOCC_INTRACELLULAR_PROTEIN_CONTAINING_COMPLEX (padj 6.31135e-8): -1.665
NES GOCC_TRANSCRIPTION_REGULATOR_COMPLEX (padj 7.03454e-8): -1.873
NES GOCC_CAJAL_BODY (padj 7.11025e-8): -2.347
NES GOCC_U2_TYPE_SPLICEOSOMAL_COMPLEX (padj 1.20627e-7): -2.187
NES GOCC_CILIUM (padj 1.31956e-7): 1.633
NES GOCC_CONDENSED_CHROMOSOME (padj 1.56303e-7): -2.04
NES GOCC_IMMUNOGLOBULIN_COMPLEX (padj 1.76109e-7): 2.5876
NES GOCC_CHROMOSOME_CENTROMERIC_REGION (padj 2.31902e-7): -2.023
NES GOCC_TRANSFERASE_COMPLEX_TRANSFERRING_PHOSPHORUS_CONTAINING_GROUPS (padj 2.54822e-7): -1.9355
NES GOCC_MOTILE_CILIUM (padj 6.10966e-7): 2.148
NES GOCC_INNER_MITOCHONDRIAL_MEMBRANE_PROTEIN_COMPLEX (padj 1.03286e-6): 2.0966
NES GOCC_HISTONE_METHYLTRANSFERASE_COMPLEX (padj 1.09294e-6): -2.238
NES GOCC_TERTIARY_GRANULE (padj 1.29564e-6): 2.058
NES GOCC_NUCLEAR_MEMBRANE (padj 1.93407e-6): -1.855
NES GOCC_NADH_DEHYDROGENASE_COMPLEX (padj 2.62751e-6): 2.526
NES GOCC_SM_LIKE_PROTEIN_FAMILY_COMPLEX (padj 3.06538e-6): -2.133
NES GOCC_LATE_ENDOSOME_MEMBRANE (padj 3.31031e-6): 2.097
NES GOCC_RNA_POLYMERASE_COMPLEX (padj 3.74343e-6): -2.068
NES GOCC_HETEROCHROMATIN (padj 4.96006e-6): -2.172
NES GOCC_PROTEIN_ACETYLTRANSFERASE_COMPLEX (padj 5.11894e-6): -2.115
NES GOCC_CYTOPLASMIC_STRESS_GRANULE (padj 1.16359e-5): -2.152
NES GOCC_VACUOLAR_LUMEN (padj 1.16897e-5): 1.934
NES GOCC_SECRETORY_GRANULE_MEMBRANE (padj 1.40276e-5): 1.763
NES GOCC_OXIDOREDUCTASE_COMPLEX (padj 1.71689e-5): 2.0601
NES GOCC_EXTERNAL_SIDE_OF_PLASMA_MEMBRANE (padj 2.05111e-5): 1.72
NES GOCC_CONDENSED_CHROMOSOME_CENTROMERIC_REGION (padj 2.22571e-5): -1.979
NES GOCC_SNO_S_RNA_CONTAINING_RIBONUCLEOPROTEIN_COMPLEX (padj 3.58719e-5): -2.2
NES GOCC_PHAGOCYTIC_VESICLE (padj 3.73055e-5): 1.9159
NES GOCC_HOST_CELLULAR_COMPONENT (padj 4.79591e-5): -2.0648
NES GOCC_SITE_OF_DNA_DAMAGE (padj 6.26347e-5): -2.003
NES GOCC_AZUROPHIL_GRANULE (padj 6.43287e-5): 1.861
NES GOCC_KINETOCHORE (padj 6.63265e-5): -1.897
NES GOCC_AUTOPHAGOSOME (padj 6.99707e-5): 2.034
NES GOCC_RNA_POLYMERASE_II_TRANSCRIPTION_REGULATOR_COMPLEX (padj 0.000108731): -1.813
NES GOCC_PML_BODY (padj 0.000125034): -1.9697
NES GOCC_EXORIBONUCLEASE_COMPLEX (padj 0.000154107): -2.113
NES GOCC_ENDORIBONUCLEASE_COMPLEX (padj 0.000165343): -2.09
NES GOCC_SMALL_NUCLEAR_RIBONUCLEOPROTEIN_COMPLEX (padj 0.000179714): -2.0229
NES GOCC_IMMUNOGLOBULIN_COMPLEX_CIRCULATING (padj 0.000186482): 2.324
NES GOCC_TERTIARY_GRANULE_MEMBRANE (padj 0.000272562): 2.004
NES GOCC_VESICLE_LUMEN (padj 0.000275827): 1.602
NES GOCC_LYSOSOMAL_LUMEN (padj 0.000331136): 1.858
NES GOCC_REPLICATION_FORK (padj 0.000358866): -1.947
NES GOCC_PRECATALYTIC_SPLICEOSOME (padj 0.000460788): -1.97
NES GOCC_EUCHROMATIN (padj 0.000526361): -2.018
NES GOCC_FICOLIN_1_RICH_GRANULE_MEMBRANE (padj 0.000558545): 2.085
NES GOCC_CYTOCHROME_COMPLEX (padj 0.000649179): 2.153
NES GOCC_PROTEIN_DNA_COMPLEX (padj 0.000678026): -1.836
NES GOCC_SITE_OF_DOUBLE_STRAND_BREAK (padj 0.000757696): -1.897
NES GOCC_PROTON_TRANSPORTING_TWO_SECTOR_ATPASE_COMPLEX (padj 0.000783651): 2.098
NES GOCC_SPECIFIC_GRANULE (padj 0.000783651): 1.663
NES GOCC_MLL1_2_COMPLEX (padj 0.000871379): -2.023
NES GOCC_RESPIRATORY_CHAIN_COMPLEX_IV (padj 0.000871379): 2.188
NES GOCC_CILIARY_TRANSITION_ZONE (padj 0.000882106): 1.976
NES GOCC_BLOOD_MICROPARTICLE (padj 0.000959119): 1.774
NES GOCC_PHAGOCYTIC_VESICLE_MEMBRANE (padj 0.00129051): 1.86
NES GOCC_SECONDARY_LYSOSOME (padj 0.00130287): 2.219
NES GOCC_TRANSCRIPTION_ELONGATION_FACTOR_COMPLEX (padj 0.00152226): -1.897
NES GOCC_NUCLEAR_REPLICATION_FORK (padj 0.00173594): -1.935
NES GOCC_TELOMERASE_HOLOENZYME_COMPLEX (padj 0.00174948): -1.978
NES GOCC_H4_HISTONE_ACETYLTRANSFERASE_COMPLEX (padj 0.00185976): -1.863
NES GOCC_CILIARY_PLASM (padj 0.00189918): 1.756
NES GOCC_POLYSOME (padj 0.00219768): -1.796
NES GOCC_PCG_PROTEIN_COMPLEX (padj 0.00279919): -1.842
NES GOCC_T_CELL_RECEPTOR_COMPLEX (padj 0.00319727): 2.053
NES GOCC_U2_TYPE_CATALYTIC_STEP_2_SPLICEOSOME (padj 0.00319727): -1.927
NES GOCC_SIDE_OF_MEMBRANE (padj 0.00331543): 1.318
NES GOCC_AZUROPHIL_GRANULE_LUMEN (padj 0.00386407): 1.725
NES GOCC_EUKARYOTIC_TRANSLATION_INITIATION_FACTOR_3_COMPLEX (padj 0.00386407): -1.892
NES GOCC_PROTON_TRANSPORTING_TWO_SECTOR_ATPASE_COMPLEX_PROTON_TRANSPORTING_DOMAIN (padj 0.00392051): 2.029
NES GOCC_SYNAPTIC_VESICLE_MEMBRANE (padj 0.00392051): 1.708
NES GOCC_SMN_SM_PROTEIN_COMPLEX (padj 0.00460194): -1.879
NES GOCC_MHC_PROTEIN_COMPLEX (padj 0.00465351): 2.03
NES GOCC_PLASMA_MEMBRANE_BOUNDED_CELL_PROJECTION_CYTOPLASM (padj 0.00477082): 1.5011
NES GOCC_TRANSLATION_PREINITIATION_COMPLEX (padj 0.00477082): -1.882
NES GOCC_9PLUS2_MOTILE_CILIUM (padj 0.00505147): 1.741
NES GOCC_FICOLIN_1_RICH_GRANULE (padj 0.00518961): 1.502
NES GOCC_ENDOSOME_MEMBRANE (padj 0.00609112): 1.2787
NES GOCC_PRESPLICEOSOME (padj 0.00659701): -1.8326
NES GOCC_ATPASE_COMPLEX (padj 0.007008): -1.657
NES GOCC_ENDOLYSOSOME (padj 0.00786364): 1.964
NES GOCC_EUKARYOTIC_48S_PREINITIATION_COMPLEX (padj 0.00886352): -1.849
NES GOCC_PHAGOPHORE_ASSEMBLY_SITE (padj 0.00895831): 1.892
NES GOCC_INTRACILIARY_TRANSPORT_PARTICLE (padj 0.00906928): 1.972
NES GOCC_TRANSCRIPTION_REPRESSOR_COMPLEX (padj 0.00954254): -1.652
